Reference: patent US20100075993A1, “SMALL MOLECULE INHIBITORS AGAINST WEST NILE VIRUS REPLICATION” (DREXEL UNIVERSITY, priority 2005, published 2010)

How the values were obtained:
WNV replicon = WNV replicon luciferase assay in BHK 26.5 cells (HTS, re-test, IC50); format: cell-based, West Nile virus; conditions: for IC50: West Nile virus, 24 h; for Fold decrease (HTS) / Fold decrease (Re-test): luciferase activity; for Fold decrease (HTS): 10 μM compound, 24 hours, BHK 26.5 cells; for Fold decrease (Re-test): re-checked at a single 10 μM concentration
Protocol: Ten micromolar concentrations of a selected compound were incubated with BHK 26.5 cells expressing luciferase whose activity is dependent upon WNV replicon replication (FIG. 1A). Primary “hits” were defined by the ability to reduce the amount of luciferase enzyme activity by more than 50%, compared to controls.
To quantify and rank the activity of the 23 remaining compound “hits”, a serial dilution of each compound was incubated with WNV replicon cells to determine the concentration that inhibits 50% of the luciferase readout (IC50s). […] A number of compounds had significant effect only at the highest, 10 μM concentration. However, several compounds had IC50s between 2 and 5 (Table 3), which is very reasonable for primary HTS hits from a compound library. Only a few compounds could cause 90% inhibition in the replicon cells at the concentrations tested.
(§1) Replicon-harboring cells were plated 96-well plates at 10,000 cells per well in MEM plus 3% FBS. 24 hours after plating, compounds were added to the wells by a Robotic liquid handler (Biomek NX) to a final concentration of 10 μM and 1% DMSO. For each 96 well plate, A1 to A8 were left open, H1 to H4 contained 1% DMSO, H5-H8 contained Mycophenolic acid (Sigma-Aldrich, St. Louis, Mo.), which was included as positive controls. After 24 hours of treatment, the media were removed and the luciferase activity expressed in the replicon cells was quantified. When cyto-toxicity was measured, duplicate 96 well plates were plated with BHK 26.5 replicon cells. One plate was used for luciferase assay and one plate was used for measuring toxicity using MTT assay.
Luciferase assay was performed by using the STEADY GLO reagent (Promega Corp. Madison, Wis.) according to the manufacturer's recommendation with slight modifications. Briefly, the culture media from the 96 wells were removed by dumping on paper towels.
100 μl of a 1:1 mixture of luciferase regent and culture media were added to the plate. After 5-minute incubation, the luminescence was read on a TOPCOUNT (PerkinElmer, Wellesley, Mass.).

BHK 26.5 replicon cells = test: MTT toxicity assay on BHK 26.5 replicon cells; format: cell-based; conditions: MTT assay
Excerpt: The HTS strategy follows the flowchart outlined in FIG. 2. 35,000 compounds were screened from a chemical library described below, using a cutoff of 50% reduction in luminescence readout as the criteria for further study. Upon completion of the screen, approximately 1100 compounds were selected, making the hit rate of 3%. This is considerably higher than expected, implying many false positive and/or cytotoxic compounds. Nevertheless, the compounds were picked out from the “daughter” plates and re-checked at a single 10 μM concentration. In addition, a duplicate 96 well plates were also plated and the toxicity of the compounds was determined in an MTT assay. Upon completion of these assays, most compounds were disqualified as either false positives or being toxicity to cells. As a result, only a small number of compounds were further analyzed directly from the “mother” plate stock. After IC50 determination and secondary assay to rule out luciferase inhibitors, 23 “hits” were identified.
as §1
Compound toxicity was determined by MTT assay. For the MTT assay, the cell medium was removed and the monolayers were incubated with 100 μl/well of 0.5 mg/ml MTT for 6 h at 37° C. The MTT solution was then aspirated and 100 μl/well of the 10% SDS (in 0.01N HCl) was added, followed by spectrophotometric quantitation (570 nm) of the insoluble MIT reaction product.

WNV = WNV yield reduction assay (live virus) on BHK cells; format: cell-based, West Nile virus; conditions: live WNV
Protocol: The antiviral assay for the 309-F6 compounds was conducted on BHK cells. The virus produced in the presence of 1% DMSO or various concentrations of compounds was tittered on Vero cells. The amount of virus relative to the 1% DMSO control was plotted on the y-axis; the concentration of the compound 309F6 is shown in μM on the x-axis. Data from two independently treated wells (Test 1 and Test 2) are shown.
To measure activity against live WNV, BHK cells were plated in 96-well plates at a concentration of 12,000 cells/well. One day later the cells were infected with WNV for 1 h at an MOI of 0.05. The cells were then washed once and re-fed with fresh DMEM containing dilutions of the test compound. Plates were then incubated at 37° C. for 48 h, the supernatant collected and the WNV produced titered. For virus titration, Vero cells were plated in 96-well plates at 8000 cells/well and incubated overnight. The Vero cell monolayer were then infected for 1 h with various dilutions of the WNV supernatant, overlaid with media containing 0.6% tragacanth (ICN, CA) and incubated at 37° C. for 48 h. The culture media was then aspirated; the plate was rinsed, air-dried, and fixed with 50 μl/well acetone/methanol (50:50). Viral foci were detected for enumeration by immunostaining as described previously (15).

| Structure (SMILES) | IC50 (WNV replicon) [µM] | Fold decrease (HTS) (WNV replicon) [Fold] | Fold decrease (Re-test) (WNV replicon) [Fold] | Toxicity (uM)* (BHK 26.5 replicon cells) [µM] | activity in the WNV infection assay (WNV) |
| --- | --- | --- | --- | --- | --- |
| CCOc1ccc(C(=O)Nc2c3c(nn2-c2ccc(OC)cc2)CSC3)cc1OCC [Compound 253-H8, 3,4-Diethoxy-N-[2-(4-methoxy-phenyl)-2,6-dihydro-4H-thieno[3,4-c]pyrazol-3-yl]-benzamide] | 10 | 2 | 1.5 | >30 | – |
| Cc1cccc(-n2nc3c(c2NC(=O)c2ccc(S(=O)(=O)N4CCCCC4)cc2)CSC3)c1 [Compound 18-H5, 4-(Piperidine-1-sulfonyl)-N-(2-m-tolyl-2,6-dihydro-4H-thieno[3,4-c]pyrazol-3-yl)-benzamide] | 7.5 | 2 | 2 | >30 | – |
| CC1CC(C)CN(S(=O)(=O)c2ccc(C3CCCCC3)cc2)C1 (stereo not drawn) [Compound 182-C2, 1-(4-Cyclohexyl-benzenesulfonyl)-3,5-dimethyl-piperidine] | – | 5 | 1.4 | >10 | – |
| Cc1ccc(S(=O)(=O)N2Cc3ccccc3CC2C(=O)Nc2ccc(Cl)cc2)cc1 (stereo not drawn) [Compound 42-E5, 2-(Toluene-4-sulfonyl)-1,2,3,4-tetrahydro-isoquinoline-3-carboxylic acid(4-chloro-phenyl)-amide] | 7.5 | 7 | 1.7 | >10 | – |
| COc1ccc(-n2nc3c(c2NC(=O)c2ccc(OC(C)C)cc2)CSC3)cc1 [Compound 253-F8, 4-Isopropoxy-N-[2-(4-methoxy-phenyl)-2,6-dihydro-4H-thieno[3,4-c]pyrazol-3-yl]-benzamide] | 10 | 2.5 | 2 | >30 | – |
| O=C1Nc2ccc(S(=O)(=O)Nc3cc(Cl)ccc3Cl)c3cccc1c23 [Compound 24-C10, 2-Oxo-1,2-dihydro-benzo[cd]indole-6-sulfonic acid (2,5-dichloro-phenyl)-amide] | 10 | 2.5 | 1.8 | >10 | – |
| NC(=O)CCS(=O)(=O)c1ccc(Cl)cc1 [Compound 2-H7, 3-(4-Chloro-benzenesulfonyl)-propionamide] | 2.5 | 4.5 | 2.5 | >20 | – |
| COc1cc(OC)cc(C(=O)Nc2c3c(nn2-c2cccc(Cl)c2)CSC3)c1 [Compound 253-B10, N-[2-(3-Chloro-phenyl)-2,6-dihydro-4H-thieno[3,4-c]pyrazol-3-yl]-3,5-dimethoxy-benzamide] | 3 | 2 | 2 | >30 | – |
| Cc1cc(C)c2nc(NC3=NC(c4ccccc4)CC(=O)N3)nc(C)c2c1 (stereo not drawn) [Compound 50-A8, 6-Phenyl-2-(4,6,8-trimethyl-quinazolin-2-ylamino)-5,6-dihydro-3H-pyrimidin-4-one] | 5 | 4.5 | 2.3 | >10 | – |
| COc1ccc(CCC(=O)Nc2ccc(C(=N)NO)cc2)cc1 [Compound 331-E11, N-[4-(N-Hydroxycarbamimidoyl)-phenyl]-3-(4-methoxy-phenyl)-propionamide] | 5 | 3 | 1.5 | >30 | – |
| Cc1ccc(-n2nc3c(c2NC(=O)C2CC2)CSC3)c(C)c1 [Compound 20-E7, Cyclopropanecarboxylic acid [2-(2,4-dimethyl-phenyl)-2,6-dihydro-4H-thieno[3,4-c]pyrazol-3-yl]-amide] | 10 | 2.3 | 2.4 | >10 | – |
| CCC(C)NC(=O)c1cnn2c(O)c(Cc3ccccc3Cl)c(C)nc12 (stereo not drawn) [Compound 275-D9, 6-(2-Chloro-benzyl)-7-hydroxy-5-methyl-pyrazolo[1,5-a]pyrimidine-3-carboxylic acid sec-butylamide] | 7.5 | 10 | 2.9 | >10 | no detectable activity |
| CCOC(=O)c1cnc2ccc(OCC)cc2c1NCc1ccccc1 [Compound 63-C10, 4-Benzylamino-6-ethoxy-quinoline-3-carboxylic acid ethyl ester] | 5 | 3.5 | – | >20 | – |
| O=C(Nc1c2c(nn1-c1ccc(F)cc1)CSC2)c1ccc2c(c1)OCO2 [Compound 253-F11, Benzo[1,3]dioxole-5-carboxylic acid [2-(4-fluoro-phenyl)-2,6-dihydro-4H-thieno[3,4-c]pyrazol-3-yl]-amide] | 10 | 3 | 2 | >30 | – |
| CCc1cccc(NC(=O)C(Cc2ccccc2)NS(=O)(=O)c2cccs2)c1 (stereo not drawn) [Compound 207-E5, N-(3-Ethyl-phenyl)-3-phenyl-2-(thiophene-2-sulfonylamino)-propionamide] | 10 | 5 | 2 | >10 | – |
| COc1ccc(-n2nc3c(c2NC(=O)c2ccc4c(c2)OCO4)CSC3)cc1 [Compound 253-G8, Benzo[1,3]dioxole-5-carboxylic acid [2-(4-methoxy-phenyl)-2,6-dihydro-4H-thieno[3,4-c]pyrazol-3-yl]-amide] | 2.5 | 2 | 2 | >30 | – |
